Values joined by “and” are separate entries in the source; they are usually repeats but may differ in a detail not shown here. Identical values can stand only once. Like-named read-outs stand apart in the source and are kept apart here. *1 amine or outer side, *2 acyl side, *3 side chain or, on linkers, in order; H or OH if unused. Where a SMILES comes first, the peptide text is derived from it. The star is where a group is joined. pNA = O=[N+]([O-])c1ccc(N*)cc1; Suc = O=C(CCC(=O)[*:2])[*:1]
Experiments:
SGPC [1] = assay: Substrate specificity of SGPC with tetrapeptide substrates sAAPXpNA; assay type: biochemical, Streptomyces griseus; details: pH 8.0, 10% DMSO, 24° C.
Procedure: The enzyme was assayed with a series of tetrapeptide substrates which had the form succinyl-Ala-Ala-Pro-X-para-nitroanilide (sAAPXpNA) (SEQ ID NOS. 3-20), where X is the P1 amino acid (the residue found on the N-terminal side of the bond which is cleaved). Kinetics constants kcat and Km were determined by assaying an appropriate dilution of SGPC with eight different concentrations of each substrate. Each substrate was dissolved in 100% DMSO to a concentration of 100 mM with the exception of sAAPQpNA (SEQ ID NO. 13) which was soluble only to a concentration of 15 mM. Five ul of an appropriate dilution of SGPC was placed in the wells of a microtiter dish. The reaction was initiated by adding 95 ul of the reaction mixture which was comprised of 50 ul of sodium bicine, pH 8.0, 35 ul of water, and 10 ul of the appropriate concentration of substrate in DMSO. The final concentration of DMSO was 10% in all of the reactions. All substrate concentrations were done in triplicate and rates were determined at 24° C. using a microtiter plate reader.

[2] = target: succinyl-Ala-Ala-Pro-Phe-para-nitroanilide
SGPC [3] = assay type: biochemical, Streptomyces griseus; details: for % remaining activity compared to a noninhibited control: pH 8
pH profile of SGPC = assay type: biochemical; details: 2 mM SAAPFpNA, 10% DMSO
[4] = for % activity compared to the non-treated control: 24° C., pH 5.0
[5] = Wash performance test, beaker-scale grass stain removal from cotton swatches

Molecule	Km (SGPC [1]) [mM]	kcat (SGPC [1]) [S^-1]	kcat /Km (SGPC [1])	other results
C[C@H](NC(=O)CCC(=O)O)C(=O)N[C@@H](C)C(=O)N1CCC[C@H]1C(=O)N[C@@H](CCCCN)C(=O)Nc1ccc([N+](=O)[O-])cc1 [sAAPKpNA] (Suc-AAPK-pNA)	4.22	10.9	2,577 M^-1 S^-1	
C[C@H](NC(=O)CCC(=O)O)C(=O)N[C@@H](C)C(=O)N1CCC[C@H]1C(=O)N[C@@H](Cc1ccccc1)C(=O)Nc1ccc([N+](=O)[O-])cc1 [sAAPFpNA, succinyl-Ala-Ala-Pro-Phe-para-nitroanilide] (Suc-AAPF-pNA)	0.29	39.7	137,600 M^-1 S^-1	
S. griseus protease C (enzyme)				kcat /Km (sAAPDpNA): 351 M^-1 S^-1; kcat /Km (sAAPTpNA): 1770 M^-1 S^-1; kcat /Km (sAAPKpNA): 2580 M^-1 S^-1; kcat /Km (sAAPMpNA): 100000 M^-1 S^-1; kcat /Km (sAAPHpNA): 22000 M^-1 S^-1; kcat /Km (sAAPSpNA): 1890 M^-1 S^-1; kcat /Km (sAAPQpNA): 2550 M^-1 S^-1; kcat /Km (sAAPRpNA): 4000 M^-1 S^-1; kcat /Km (sAAPLpNA): 27000 M^-1 S^-1; kcat /Km (sAAPApNA): 6830 M^-1 S^-1; kcat /Km [2]: 138000 M^-1 S^-1; kcat /Km (sAAPVpNA): 1420 M^-1 S^-1; kcat /Km (sAAPCpNA): 14400 M^-1 S^-1; kcat /Km (sAAPNpNA): 12200 M^-1 S^-1; kcat /Km (sAAPYpNA): 61800 M^-1 S^-1
O=C(O)CN(CCN(CC(=O)O)CC(=O)O)CC(=O)O [EDTA, ethylenediaminetetraacetic acid]				inhibition of SGPC (in words) (SGPC [3]): no significant inhibition; % remaining activity compared to a noninhibited control (SGPC [3]): 97% and 94%
C[C@H](NC(=O)CCC(=O)O)C(=O)N[C@@H](C)C(=O)N1CCC[C@H]1C(=O)NCC(=O)Nc1ccc([N+](=O)[O-])cc1 [sAAPGpNA] (Suc-AAPG-pNA)				rates seen with the substrate (SGPC [1]): too samll to be reliable
C[C@H](NC(=O)CCC(=O)O)C(=O)N[C@@H](C)C(=O)N1CCC[C@H]1C(=O)N[C@H](C(=O)Nc1ccc([N+](=O)[O-])cc1)[C@@H](C)O [sAAPTpNA] (Suc-AAPT-pNA)	4.34	7.69	1,769 M^-1 S^-1	
C[C@H](NC(=O)CCC(=O)O)C(=O)N[C@@H](C)C(=O)N1CCC[C@H]1C(=O)N[C@@H](CO)C(=O)Nc1ccc([N+](=O)[O-])cc1 [sAAPSpNA] (Suc-AAPS-pNA)	3.73	7.05	1,893 M^-1 S^-1	
C[C@H](NC(=O)CCC(=O)O)C(=O)N[C@@H](C)C(=O)N1CCC[C@H]1C(=O)N[C@@H](Cc1ccc(O)cc1)C(=O)Nc1ccc([N+](=O)[O-])cc1 [sAAPYpNA] (Suc-AAPY-pNA)	0.49	27.7	61,770 M^-1 S^-1	
CC(C)[C@H](NC(=O)[C@@H]1CCCN1C(=O)[C@H](C)NC(=O)[C@H](C)NC(=O)CCC(=O)O)C(=O)Nc1ccc([N+](=O)[O-])cc1 [sAAPVpNA] (Suc-AAPV-pNA)	1.08	0.53	1,422 M^-1 S^-1	
C[C@H](NC(=O)CCC(=O)O)C(=O)N[C@@H](C)C(=O)N1CCC[C@H]1C(=O)N[C@@H](CC(=O)O)C(=O)Nc1ccc([N+](=O)[O-])cc1 [sAAPDpNA] (Suc-AAPD-pNA)	19.6	6.89	351 M^-1 S^-1	
C[C@H](NC(=O)CCC(=O)O)C(=O)N[C@@H](C)C(=O)N1CCC[C@H]1C(=O)N[C@@H](CS)C(=O)Nc1ccc([N+](=O)[O-])cc1 [sAAPCpNA] (Suc-AAPC-pNA)	4.26	61.3	14,380 M^-1 S^-1	
CSCC[C@H](NC(=O)[C@@H]1CCCN1C(=O)[C@H](C)NC(=O)[C@H](C)NC(=O)CCC(=O)O)C(=O)Nc1ccc([N+](=O)[O-])cc1 [sAAPMpNA] (Suc-AAPM-pNA)	0.39	39.3	100,400 M^-1 S^-1	
CC(C)C[C@H](NC(=O)[C@@H]1CCCN1C(=O)[C@H](C)NC(=O)[C@H](C)NC(=O)CCC(=O)O)C(=O)Nc1ccc([N+](=O)[O-])cc1 [sAAPLpNA] (Suc-AAPL-pNA)	0.92	24.8	27,030 M^-1 S^-1	
C[C@H](NC(=O)CCC(=O)O)C(=O)N[C@@H](C)C(=O)N1CCC[C@H]1C(=O)N[C@@H](CCC(N)=O)C(=O)Nc1ccc([N+](=O)[O-])cc1 [sAAPQpNA] (Suc-AAPQ-pNA)	14.3	36.3	2,547 M^-1 S^-1	
O=C(O)CI [IOAc, iodoacetic acid]				inhibition of SGPC (in words) (SGPC [3]): no significant inhibition; % remaining activity compared to a noninhibited control (SGPC [3]): 104% and 103%
C[C@H](NC(=O)CCC(=O)O)C(=O)N[C@@H](C)C(=O)N1CCC[C@H]1C(=O)N[C@@H](CCCNC(=N)N)C(=O)Nc1ccc([N+](=O)[O-])cc1 [sAAPRpNA] (Suc-AAPR-pNA)	4.17	16.7	4,001 M^-1 S^-1	
CC[C@H](C)[C@H](NC(=O)[C@@H]1CCCN1C(=O)[C@H](C)NC(=O)[C@H](C)NC(=O)CCC(=O)O)C(=O)Nc1ccc([N+](=O)[O-])cc1 [sAAPIpNA] (Suc-AAPI-pNA)				rates seen with the substrate (SGPC [1]): too samll to be reliable
C[C@H](NC(=O)CCC(=O)O)C(=O)N[C@@H](C)C(=O)N1CCC[C@H]1C(=O)N[C@@H](C)C(=O)Nc1ccc([N+](=O)[O-])cc1 [sAAPApNA] (Suc-AAPA-pNA)	5.29	36.1	6,826 M^-1 S^-1	
C[C@H](NC(=O)CCC(=O)O)C(=O)N[C@@H](C)C(=O)N1CCC[C@H]1C(=O)N[C@@H](CC(N)=O)C(=O)Nc1ccc([N+](=O)[O-])cc1 [sAAPNpNA] (Suc-AAPN-pNA)	2.91	35.3	12,160 M^-1 S^-1	
O=S(=O)(F)Cc1ccccc1 [PMSF, phenylmethylsulfonyl fluoride]				inhibition of SGPC (in words) (SGPC [3]): inhibit SGPC; % remaining activity compared to a noninhibited control (SGPC [3]): 0.07% and 0.06%
C[C@H](NC(=O)CCC(=O)O)C(=O)N[C@@H](C)C(=O)N1CCC[C@H]1C(=O)N[C@@H](Cc1cnc[nH]1)C(=O)Nc1ccc([N+](=O)[O-])cc1 [sAAPHpNA] (Suc-AAPH-pNA)	1.09	24.0	21,960 M^-1 S^-1	
C[C@H](NC(=O)CCC(=O)O)C(=O)N[C@@H](C)C(=O)N1CCC[C@H]1C(=O)N[C@@H](CCC(=O)O)C(=O)Nc1ccc([N+](=O)[O-])cc1 [sAAPEpNA] (Suc-AAPE-pNA)				rates seen with the substrate (SGPC [1]): too samll to be reliable
SGPC: alkaline serine protease from Streptomyces griseus var. alkaliphilus No. 33, apparent molecular weight about 19,000 daltons (protein, UniProt P52320 203-457, looked up) Streptogrisin-C: ADIRGGDAYYMNGSGRCSVGFSVTRGTQNGFATAGHCGRVGTTTNGVNQQAQGTFQGSTFPGRDIAWVATNANWTPRPLVNGYGRGDVTVAGSTASVVGASVCRSGSTTGWHCGTIQQLNTSVTYPEGTISGVTRTSVCAEPGDSGGSYISGSQAQGVTSGGSGNCSSGGTTYFQPINPLLQAYGLTLVTSGGGTPTDPPTTPPTDSPGGTWAVGTAYAAGATVTYGGATYRCLQAHTAQPGWTPADVPALWQRV				pH optimum (in words) (pH profile of SGPC): highly alkaline pH optimum; % activity compared to the non-treated control ([4]; 2 M Guanidine, 1 hour): 125.7%; % activity compared to the non-treated control ([4]; 2 M Guanidine, 24 hours): 105.7%; % activity compared to the non-treated control ([4]; 2 M Urea, 1 hour): 103.5%; % activity compared to the non-treated control ([4]; 2 M Urea, 24 hours): 98.1%; effect on the activity (in words) ([4]; 2 M to 6 M urea, 24 hr vs 1 hr): very little effect; % activity compared to the non-treated control ([4]; 4 M Guanidine, 1 hour): 130.4%; % activity compared to the non-treated control ([4]; 4 M Guanidine, 24 hours): 55.8%; % activity compared to the non-treated control ([4]; 4 M Urea, 1 hour): 118.2%; % activity compared to the non-treated control ([4]; 4 M Urea, 24 hours): 112.4%; % activity compared to the non-treated control ([4]; 6 M Guanidine, 1 hour): 98.0%; % activity compared to the non-treated control ([4]; 6 M Guanidine, 24 hours): 10.1%; % activity compared to the non-treated control ([4]; 6 M Urea, 1 hour): 116.4%; % activity compared to the non-treated control ([4]; 6 M Urea, 24 hours): 112.9%; effect on the activity (in words) ([4]; Guanidine 4 M to 6 M, 24 hr): substantial losses of activity; effect on the activity (in words) ([4]; Guanidine at 2 M, 24 hr): slight effect; effectiveness against grass stain compared with Savinase ([5]; equal weight of protease in the wash liquor): more effective than Savinase; (delta) % SRE (percent stain removal over a control containing no enzyme) ([5]; grass stain, cotton swatches, 37° C., powdered detergent 104 g/69 liters, pH 10.5, 0.25 mg protease/500 ml wash liquor): 59.6%

Reference: patent US5646028A, “Alkaline serine protease streptomyces griseus var. alkaliphus having enhanced stability against urea or guanidine” (The Clorox Company, priority 1995, dated 1997)
